Oligonucleotides are written 5' to 3', each unit as a sugar letter and its base; * is a phosphorothioate linkage, no mark a phosphodiester; rarer units and linkages stand in square brackets, end groups in braces. Plain capitals give the bases only. e = 2'-O-(2-methoxyethyl) (MOE); [5mC] = 5-methylcytosine; d = 2'-deoxy (DNA)
How the values were obtained:
murine TTC39A mRNA [1] = test: Antisense inhibition of mouse TTC39A in b.END cells, single dose; format: cell-based; details: 70 nM, cytofectin, ~24 h, vs untreated control
Method: Antisense oligonucleotides were designed targeting a TTC39A nucleic acid and were tested for their effects on TTC39A mRNA in vitro. Cultured b.END cells at a density of 4,000 cells per well were transfected using cytofectin reagent with 70 nM antisense oligonucleotide. After a treatment period of approximately 24 hours, RNA was isolated from the cells and TTC39A mRNA levels were measured by quantitative real-time PCR. Mouse primer probe set RTS3262 (forward sequence TGTGCGTCATGCTGTTGCT, designated herein as SEQ ID NO: 113; reverse sequence […], designated herein as SEQ ID NO: 114; probe sequence […], designated herein as SEQ ID NO: 115). TTC39A mRNA levels were adjusted according to total RNA content, as measured by RIBOGREEN®. Results are presented as percent inhibition of TTC39A, relative to untreated control cells.
The chimeric antisense oligonucleotides targeting TTC39A were designed as 5-10-5 MOE gapmers. The gapmers are 20 nucleotides in length, wherein the central gap segment is comprised of ten 2′-deoxynucleotides and is flanked on both sides (in the 5′ and 3′ directions) by wings comprising five nucleotides each. Each nucleotide in the 5′ wing segment and each nucleotide in the 3′ wing segment has a 2′-MOE modification. The internucleoside linkages throughout each gapmer are phosphorothioate (P═S) linkages. All cytosine residues throughout each gapmer are 5-methylcytosines. “Mouse Target start site” indicates the 5′-most nucleotide to which the gapmer is targeted in a mouse nucleic acid sequence.

murine TTC39A mRNA [2] = test: Dose-dependent antisense inhibition of murine TTC39A in b.END cells; format: cell-based, mouse; details: ~16 h; for IC50: cytofectin
Method: Cells were plated at a density of 3,500 cells per well and transfected using cytofectin reagent with 4.375 nM, 8.75 nM, 17.5 nM, 35 nM, 70 nM, and 140 nM concentrations of antisense oligonucleotide, as specified in Table 28. After a treatment period of approximately 16 hours, RNA was isolated from the cells and TTC39A mRNA levels were measured by quantitative real-time PCR. Murine primer probe set RTS3262 was used to measure mRNA levels. TTC39A mRNA levels were adjusted according to total RNA content, as measured by RIBOGREEN®. Results are presented as percent inhibition of TTC39A, relative to untreated control cells.

Sequence | % inhibition of murine TTC39A mRNA (murine TTC39A mRNA [1]) | percent inhibition of TTC39A mRNA (murine TTC39A mRNA [2]; 4.375 nM) | percent inhibition of TTC39A mRNA (murine TTC39A mRNA [2]; 8.75 nM) | percent inhibition of TTC39A mRNA (murine TTC39A mRNA [2]; 17.5 nM) | percent inhibition of TTC39A mRNA (murine TTC39A mRNA [2]; 35.0 nM) | percent inhibition of TTC39A mRNA (murine TTC39A mRNA [2]; 70.0 nM) | percent inhibition of TTC39A mRNA (murine TTC39A mRNA [2]; 140.0 nM) | IC50 (murine TTC39A mRNA [2])
GCATGTAGAGAACTTCCAGG (eG*e[5mC]*eA*eT*eG*dT*dA*dG*dA*dG*dA*dA*d[5mC]*dT*dT*e[5mC]*e[5mC]*eA*eG*eG; antisense) [ISIS 474382] | 95% | 0% | 10% | 24% | 41% | 68% | 80% | 42 nM
CGCCTGGACTTCCGGATAGC (e[5mC]*eG*e[5mC]*e[5mC]*eT*dG*dG*dA*d[5mC]*dT*dT*d[5mC]*d[5mC]*dG*dG*eA*eT*eA*eG*e[5mC]; antisense) [ISIS 474369] | 96% | 0% | 14% | 22% | 48% | 62% | 82% | 44 nM
AGTTGGGACCCAGAAGGCCT (eA*eG*eT*eT*eG*dG*dG*dA*d[5mC]*d[5mC]*d[5mC]*dA*dG*dA*dA*eG*eG*e[5mC]*e[5mC]*eT; antisense) [ISIS 474497] | 94% | 8% | 5% | 21% | 29% | 53% | 77% | 72 nM
GCCTCAGAATCCTGGTGGGA (eG*e[5mC]*e[5mC]*eT*e[5mC]*dA*dG*dA*dA*dT*d[5mC]*d[5mC]*dT*dG*dG*eT*eG*eG*eG*eA; antisense) [ISIS 474437] | 94% | 5% | 6% | 26% | 36% | 62% | 82% | 49 nM
TCCTTGCTCAGCAGGTCGGC (eT*e[5mC]*e[5mC]*eT*eT*dG*d[5mC]*dT*d[5mC]*dA*dG*d[5mC]*dA*dG*dG*eT*e[5mC]*eG*eG*e[5mC]; antisense) [ISIS 474366] | 93% | 0% | 0% | 23% | 45% | 64% | 80% | 43 nM
TCGGTGCCTCTGACACAGCG (eT*e[5mC]*eG*eG*eT*dG*d[5mC]*d[5mC]*dT*d[5mC]*dT*dG*dA*d[5mC]*dA*e[5mC]*eA*eG*e[5mC]*eG; antisense) [ISIS 474474] | 97% | 0% | 5% | 27% | 56% | 72% | 87% | 33 nM
TGCACTGGTCCAGGGCCTCA (eT*eG*e[5mC]*eA*e[5mC]*dT*dG*dG*dT*d[5mC]*d[5mC]*dA*dG*dG*dG*e[5mC]*e[5mC]*eT*e[5mC]*eA; antisense) [ISIS 474351] | 94% | 6% | 0% | 8% | 48% | 66% | 84% | 44 nM
TCCATGGAGTAGTTCTTGTA (eT*e[5mC]*e[5mC]*eA*eT*dG*dG*dA*dG*dT*dA*dG*dT*dT*d[5mC]*eT*eT*eG*eT*eA; antisense) [ISIS 474452] | 92% | 0% | 9% | 36% | 46% | 61% | 86% | 41 nM
CCGCACTTTGATGCCGCCCT (e[5mC]*e[5mC]*eG*e[5mC]*eA*d[5mC]*dT*dT*dT*dG*dA*dT*dG*d[5mC]*d[5mC]*eG*e[5mC]*e[5mC]*e[5mC]*eT; antisense) [ISIS 474435] | 94% | 0% | 2% | 11% | 8% | 52% | 76% | 67 nM
CACCTGGGTTTGAGGTAGCT (e[5mC]*eA*e[5mC]*e[5mC]*eT*dG*dG*dG*dT*dT*dT*dG*dA*dG*dG*eT*eA*eG*e[5mC]*eT; antisense) [ISIS 474498] | 95% | 0% | 6% | 33% | 55% | 64% | 80% | 35 nM
